Assay results published in ChEMBL document CHEMBL1128378, “Use of medium-sized cycloalkyl rings to enhance secondary binding: discovery of a new class of human immunodeficiency virus (HIV) protease inhibitors” (J Med Chem, 1995).

Experiments:
[1] = system: HIV-1 protease (Human immunodeficiency virus 1); experiment: Inhibition against HIV protease at 1 uM
[2] = system: HIV-1 protease (Human immunodeficiency virus 1); experiment: Binding affinity against HIV protease at 30 uM
[3] = system: HIV-1 protease (Human immunodeficiency virus 1); experiment: Binding affinity against HIV protease.; Not determined due to low enzyme inhibition
[4] = system: HIV-1 protease (Human immunodeficiency virus 1); experiment: Binding affinity against HIV protease at 1 uM
[5] = Maximum plasma concentration for the compound in solution form (formulation) was determined in rats at peroral dose of 5 mg/kg; assay type: ADME, organism-based; set-up: dose 5 mg/kg, route oral; conditions: rat, po
[6] = Time taken for maximum plasma concentration for the compound in solution form (formulation) was determined in rats at peroral dose of 5 mg/kg; assay type: ADME, organism-based; set-up: dose 5 mg/kg, route oral; conditions: rat, po
[7] = Maximum plasma concentration for the compound in suspension form (formulation) was determined in rats at peroral dose of 5 mg/kg; assay type: ADME, organism-based; set-up: dose 5 mg/kg, route oral; conditions: rat, po
[8] = Time taken for maximum plasma concentration for the compound in suspension form (formulation) was determined in rats at peroral dose of 5 mg/kg; assay type: ADME, organism-based; set-up: dose 5 mg/kg, route oral; conditions: rat, po
[9] = system: HIV-1 protease (Human immunodeficiency virus 1); experiment: Binding affinity against HIV protease at 30 uM concentration

Q: With O=c1c2c(oc(O)c1C(c1ccccc1)C1CC1)CCCCC2 (configuration not stated) as the molecule, how does the inhibition [1] read?
A: 70%

Q: Which inhibition [2] does the source give for O=c1c(Cc2ccccc2)c(O)oc2c1CCCCCC2 here?
A: < 10%

Q: With O=c1c2c(oc(O)c1C(c1ccccc1)C1CC1)CCCCCCCC2 (configuration not stated) as the molecule, how does the inhibition [1] read?
A: 23%

Q: For O=c1c2c(oc(O)c1C(c1ccccc1)C1CC1)CCCC2 (configuration not stated), which inhibition [1] is on record?
A: 62%

Q: With O=c1c(CCc2ccccc2)c(O)oc2c1CCCCCC2 as the molecule, how does the inhibition [2] read?
A: < 10%

Q: For O=c1c2c(oc(O)c1C(c1ccccc1)C1CC1)CCC2 (configuration not stated), which inhibition [1] is on record?
A: 40%

Q: What about the Ki [3] of the same molecule?
A: Low inhibition

Q: For CC(c1ccccc1)c1c(O)c2c(oc1=O)CCCCCC2 (configuration not stated), which inhibition [4] is on record?
A: 10%

Q: With O=c1c2c(oc(O)c1C(c1ccccc1)C1CC1)CCCCCC2 (configuration not stated) as the molecule, how does the inhibition [1] read?
A: 95%

Q: What about the Cmax [5] of the same molecule?
A: 40.8 µM

Q: What about the Tmax [6] of the same molecule?
A: 3.7 h

Q: And the Cmax [7]?
A: 30.3 µM

Q: And the Tmax [8]?
A: 6 h

Q: With O=c1c2c(oc(O)c1C(c1ccccc1)C1CC1)CCCCCCCCCC2 (configuration not stated) as the molecule, how does the inhibition [1] read?
A: < 10%

Q: And the Ki [3]?
A: Low inhibition

Q: For O=c1c2c(oc(O)c1C(c1ccccc1)C1CC1)CCCCCCC2 (configuration not stated), which inhibition [1] is on record?
A: 94%

Q: For O=c1c(CCCc2ccccc2)c(O)oc2c1CCCCCC2, which inhibition [9] is on record?
A: 38%
